39 molecules from US8530468B2 (Cancer Research Technology Limited, priority 2008, dated 2013) can be followed below.

The test system of assay [1] is HT29 colon carcinoma cells. The assay is described as follows: Cytotoxicity assay (SRB). As to conditions: Homo sapiens, read-out: SRB IC50 (concentration required to inhibit growth by 50%). The assay is classed as cell-based.
The next assay concerns HT29 cells. In words: Mitosis inhibition assay (MIA), checkpoint abrogation after etoposide. The assay is classed as cell-based. The settings on record: Homo sapiens, HT-29, etoposide 50 μM 1 hour, then compound with nocodazole 100 ng/mL, 21 hours, read-out: MIA IC50 (concentration required to allow 50% of cells to enter mitosis).
In another assay the target is T1, CHK1 (Homo sapiens, UniProt O14757).
T1 sequence (O14757 1-476): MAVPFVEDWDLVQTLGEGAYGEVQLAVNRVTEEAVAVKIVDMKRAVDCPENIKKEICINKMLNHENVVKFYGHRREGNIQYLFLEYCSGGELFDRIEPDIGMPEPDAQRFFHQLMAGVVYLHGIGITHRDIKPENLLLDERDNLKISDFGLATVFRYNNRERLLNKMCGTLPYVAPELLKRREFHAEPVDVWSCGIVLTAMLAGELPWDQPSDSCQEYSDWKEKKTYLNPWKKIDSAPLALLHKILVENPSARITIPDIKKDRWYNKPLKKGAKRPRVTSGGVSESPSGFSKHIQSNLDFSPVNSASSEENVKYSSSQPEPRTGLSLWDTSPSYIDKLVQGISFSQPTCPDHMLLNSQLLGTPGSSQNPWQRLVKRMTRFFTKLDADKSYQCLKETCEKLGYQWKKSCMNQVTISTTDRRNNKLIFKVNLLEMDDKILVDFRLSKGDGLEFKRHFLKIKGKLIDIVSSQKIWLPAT
The assay is described as follows: CHK1 kinase function inhibition (DELFIA assay, phosphorylation of CDC25C peptide). It counts as biochemical. As to conditions: CHK1 1 nM, ATP 30 μM, 30 minutes at room temperature.

Each structure is given as a SMILES string. Read-outs that look alike come from different tables or passages of the source.

As for `N#Cc1ncc(Nc2cc3ccccc3cn2)nc1OCC1CCNCC1` [AA-003], the IC50 in assay [1] (HT-29, 96 h) was no more than 10 µM.
In the case of `N#Cc1ncc(Nc2cc3cccc(Cl)c3cn2)nc1OCC1CCNCC1` [AA-006], in assay [1] (HT-29, 96 h), the IC50 is no more than 10 µM.
As to `N#Cc1ncc(Nc2cc3cccc(Cl)c3cn2)nc1OC1CCCNC1` (stereo not drawn) [AA-007], the IC50 in assay [1] (HT-29, 96 h) was no more than 10 µM; in the assay with HT29 cells it was no more than 10 µM.
Take `N#Cc1ncc(Nc2cc3cccc(Cl)c3cn2)nc1O[C@@H]1CCNC1` [AA-008, (R)-5-(8-Chloroisoquinolin-3-ylamino)-3-(pyrrolidin-3-yloxy)pyrazine-2-carbonitrile]: the IC50 at CHK1 was no more than 1 µM; in assay [1] (HT-29, 96 hours), no more than 10 µM; with HT29 cells, no more than 10 µM.
Turning to `CC(CN(C)C)Oc1nc(Nc2cc3cccc(Cl)c3cn2)cnc1C#N` (stereo not drawn) [AA-010], the IC50 in assay [1] (HT-29, 96 h) was no more than 10 µM; with HT29 cells it was no more than 10 µM.
`CN1CCC(COc2nc(Nc3cc4cccc(Cl)c4cn3)cnc2C#N)CC1` [AA-014]: the IC50 against CHK1 was no more than 1 µM; in assay [1] (HT-29, 96 hours), no more than 10 µM; in the assay with HT29 cells it was no more than 10 µM.
In the case of `N#Cc1ncc(Nc2cc3ccccc3cn2)nc1OC1CCCNC1` (stereo not drawn) [AA-015], in assay [1] (HT-29, 96 h), the IC50 is no more than 10 µM.
Regarding `N#Cc1cnc(Nc2cc3cccc(NCCN4CCOCC4)c3cn2)cn1` [AA-020, 5-(8-(2-morpholinoethylamino)isoquinolin-3-ylamino)pyrazine-2-carbonitrile], the IC50 is no more than 1 µM against CHK1; no more than 10 µM in assay [1] (HT-29, 96 hours); no more than 10 µM in the assay with HT29 cells.
On to `C[C@H](CN(C)C)Oc1nc(Nc2cc3ccccc3cn2)cnc1C#N` [AA-022], for which the IC50 in assay [1] (HT-29, 96 h) is no more than 10 µM; in the assay with HT29 cells, no more than 10 µM.
On to `C[C@H](CN(C)C)Oc1nc(Nc2cc3cccc(Cl)c3cn2)cnc1C#N` [AA-023], for which the IC50 in assay [1] (HT-29, 96 h) is no more than 10 µM; in the assay on HT29 cells it was no more than 10 µM.
Take `Cc1cccc2cc(Nc3cnc(C#N)c(OC(C)CN(C)C)n3)ncc12` (stereo not drawn) [AA-025]: the IC50 on CHK1 was no more than 1 µM; in assay [1] (HT-29, 96 hours), no more than 10 µM; with HT29 cells it was no more than 10 µM.
On to `CC(CN(C)C)Oc1nc(Nc2cc3cccc(Br)c3cn2)cnc1C#N` (stereo not drawn) [AA-026], for which the IC50 against CHK1 is no more than 1 µM; in assay [1] (HT-29, 96 hours) it was no more than 10 µM; with HT29 cells, no more than 10 µM.
As for `N#Cc1cnc(Nc2cc3cccc(NCCCN4CCOCC4)c3cn2)cn1` [AA-027], the IC50 against CHK1 was no more than 1 µM; in assay [1] (HT-29, 96 hours), no more than 10 µM; in the assay with HT29 cells, no more than 10 µM.
As for `N#Cc1ncc(Nc2cc3cccc(NCCN4CCOCC4)c3cn2)nc1OCC1CCOC1` (stereo not drawn) [AA-029], the IC50 at CHK1 is no more than 1 µM; with HT29 cells, no more than 10 µM.
In the case of `COc1nc(Nc2cc3cccc(NCCN4CCOCC4)c3cn2)cnc1C#N` [AA-030], the results for the IC50 on CHK1 and in the assay with HT29 cells were no more than 1 µM and no more than 10 µM, respectively.
With `N#Cc1cnc(Nc2cc3cccc(NCCO)c3cn2)cn1` [AA-031, 5-(8-(2-Hydroxyethylamino)isoquinolin-3-ylamino)pyrazine-2-carbonitrile], the IC50 against CHK1 is no more than 1 µM; in assay [1] (HT-29, 96 hours) it was no more than 10 µM; with HT29 cells it was no more than 10 µM.
On to `CC(CN(C)C)Oc1nc(Nc2cc3cccc(NCCO)c3cn2)cnc1C#N` (stereo not drawn) [AA-032], for which the IC50 on CHK1 was no more than 1 µM; in assay [1] (HT-29, 96 hours), no more than 10 µM; in the assay on HT29 cells, no more than 10 µM.
Consider `N#Cc1cnc(Nc2cc3cccc(NCCCO)c3cn2)cn1` [AA-033], for which the IC50 at CHK1 was no more than 1 µM; in assay [1] (HT-29, 96 hours), no more than 10 µM; in the assay on HT29 cells, no more than 10 µM.
With `CC(CN(C)C)Oc1nc(Nc2cc3cccc(NCCCO)c3cn2)cnc1C#N` (stereo not drawn) [AA-034], the IC50 on CHK1 was no more than 1 µM; in assay [1] (HT-29, 96 hours) it was no more than 10 µM; in the assay with HT29 cells, no more than 10 µM.
For the molecule `COCCCNc1cccc2cc(Nc3cnc(C#N)cn3)ncc12` [AA-035], the IC50 on CHK1 was no more than 1 µM; with HT29 cells, no more than 10 µM.
Consider `COCCNc1cccc2cc(Nc3cnc(C#N)cn3)ncc12` [AA-036], for which the results for the IC50 on CHK1 and with HT29 cells were no more than 1 µM and no more than 10 µM, respectively.
Turning to `COCCNc1cccc2cc(Nc3cnc(C#N)c(O[C@@H]4CCNC4)n3)ncc12` [AA-037], the IC50 on CHK1 was no more than 1 µM; in assay [1] (HT-29, 96 hours), no more than 10 µM; with HT29 cells, no more than 10 µM.
With `COCCCNc1cccc2cc(Nc3cnc(C#N)c(O[C@H](C)CN(C)C)n3)ncc12` [AA-038], the IC50 is no more than 1 µM against CHK1; no more than 10 µM in assay [1] (HT-29, 96 hours); no more than 10 µM in the assay on HT29 cells.
As to `COCCNc1cccc2cc(Nc3cnc(C#N)c(O[C@H](C)CN(C)C)n3)ncc12` [AA-039], the IC50 in assay [1] (HT-29, 96 hours) is no more than 10 µM; in the assay on HT29 cells it was no more than 10 µM.
Turning to `N#Cc1ncc(Nc2cc3cccc(NCCCO)c3cn2)nc1O[C@@H]1CCNC1` [AA-040], the IC50 against CHK1 was no more than 1 µM; in assay [1] (HT-29, 96 hours) it was no more than 10 µM; in the assay with HT29 cells, no more than 10 µM.
Turning to `C[C@H](CN(C)C)Oc1nc(Nc2cc3cccc(NCCCO)c3cn2)cnc1C#N` [AA-041], the IC50 at CHK1 was no more than 1 µM; in assay [1] (HT-29, 96 hours), no more than 10 µM; with HT29 cells, no more than 10 µM.
On to `N#Cc1ncc(Nc2cc3cccc(NCCO)c3cn2)nc1OC[C@H]1CNCCO1` [AA-043], for which the IC50 on CHK1 is no more than 1 µM; in assay [1] (HT-29, 96 hours), no more than 10 µM; in the assay with HT29 cells, no more than 10 µM.
Take `COCCNC(=O)c1cccc2cc(Nc3cnc(C#N)c(OC(C)CN(C)C)n3)ncc12` (stereo not drawn) [AA-066]: the results for the IC50 on CHK1 and in the assay with HT29 cells were 1 to 10 µM and no more than 10 µM, respectively.
For `C[C@H](C[N+](C)(C)[O-])Oc1nc(Nc2cc3cccc(Cl)c3cn2)cnc1C#N` [AA-071, (R)-2-(6-(8-Chloroisoquinolin-3-ylamino)-3-cyanopyrazin-2-yloxy)-N,N-dimethylpropan-1-amine oxide], in that order: no more than 1 µM and no more than 10 µM.
Consider `N#Cc1ncc(Nc2cc3cccc(F)c3cn2)nc1O[C@@H]1CCNC1` [AA-072], for which the IC50 is no more than 1 µM at CHK1 and no more than 10 µM in the assay with HT29 cells.
Take `N#Cc1cnc(Nc2cc3c(cn2)ncn3CC2CCCNC2)cn1` (stereo not drawn) [BB-020, 5-(1-(Piperidin-3-ylmethyl)-1H-imidazo[4,5-c]pyridin-6-ylamino)pyrazine-2-carbonitrile]: the IC50 at CHK1 was in the range of 1 to 10 µM.
Same read-out and setting: as for `N#Cc1cnc(Nc2cc3c(cn2)ncn3[C@H]2CCCNC2)cn1` [BB-021, (S)-5-(1-(Piperidin-3-yl)-1H-imidazo[4,5-c]pyridin-6-ylamino)pyrazine-2-carbonitrile], the figure is no more than 1 µM; as for `N#Cc1cnc(Nc2cc3c(cn2)ncn3C2CCNCC2)cn1` [BB-022, 5-(1-(Piperidin-4-yl)-1H-imidazo[4,5-c]pyridin-6-ylamino)pyrazine-2-carbonitrile], 1 to 10 µM; as for `N#Cc1cnc(Nc2cc3c(cn2)ncn3[C@@H]2CCCNC2)cn1` [BB-023, (R)-5-(1-(Piperidin-3-yl)-1H-imidazo[4,5-c]pyridin-6-ylamino)pyrazine-2-carbonitrile], 1 to 10 µM.
As to `CC(CN(C)C)Oc1nc(Nc2cc3[nH]cnc3cn2)cnc1C#N` (stereo not drawn) [BB-024, 5-(3H-Imidazo[4,5-c]pyridin-6-ylamino)-3-(1-(dimethylamino)propan-2-yloxy)pyrazine-2-carbonitrile], on CHK1, the IC50 was no more than 1 µM.
On the same count and under the same terms, the figure for `CN1CCCC(Oc2nc(Nc3cc4[nH]cnc4cn3)cnc2C#N)C1` (stereo not drawn) [BB-025] is no more than 1 µM.
Still for that read-out and setting: as for `CN1CCCC(COc2nc(Nc3cc4[nH]cnc4cn3)cnc2C#N)C1` (stereo not drawn) [BB-026], the figure is no more than 1 µM.
`N#Cc1ncc(Nc2cc3[nH]cnc3cn2)nc1O[C@@H]1CCNC1` [BB-027]: on CHK1, the IC50 is no more than 1 µM.
Still for that read-out and setting: as for `N#Cc1cnc(Nc2cc3cc[nH]c3cn2)cn1` [CC-001, 5-(1H-Pyrrolo[2,3-c]pyridin-5-ylamino)pyrazine-2-carbonitrile], the figure is 1 to 10 µM.
